Test systems include A549; ACHN; DU-145; HOP-62; IGROV-1; MDA-MB-231; MDA-MB-435; NCI-H522; OVCAR-3; PC-3; RPMI-8226; SF-268; SK-MEL-2; SK-MEL-5; SK-OV-3; SNB-75; SW-620; T47D; U-251; UACC-62.
What all share (experiment): DTP human tumour cell line panel, 48 h

Molecules are shown by their SMILES.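 Step 1: Grow cells in 96-well plates. Step 2: Expose to compound for 48 hours at 5 concentrations. Step 3: Interpolate endpoints linearly; if unreached, use highest concentration. GI50 = concentration required for 50% inhibition of growth.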 The source made the active and inactive calls. Rule as the data show it: active = GI50 up to about 1.1 µM and inactive = higher.

Usually GI50 stands for the concentration at which growth is held to half of that of the control.

`COC(=O)C1CCC(=S)N1C(=O)OCc1ccccc1` (stereo not given): the GI50 with A549 was 71 µM (inactive); in the test on ACHN it was > 100 µM (inactive); in the test with DU-145, > 100 µM (inactive); in the test with HOP-62, > 100 µM (inactive); in the test with IGROV-1, > 100 µM (inactive); with MDA-MB-231, > 100 µM (inactive). Further, the GI50 is > 100 µM (inactive) in the test on MDA-MB-435; 86.7 µM (inactive) in the test on NCI-H522; 78.3 µM (inactive) in the test with OVCAR-3; > 100 µM (inactive) with PC-3; > 100 µM (inactive) in the test on RPMI-8226; 98.6 µM (inactive) in the test with SF-268. Further, the GI50 was > 100 µM (inactive) in the test on SK-MEL-2; > 100 µM (inactive) with SK-MEL-5; > 100 µM (inactive) in the test with SK-OV-3; > 100 µM (inactive) in the test with SNB-75; 83.2 µM (inactive) in the test on SW-620; > 100 µM (inactive) with T47D. Moreover, the GI50 with U-251 was 81.8 µM (inactive); in the test with UACC-62, > 100 µM (inactive).
Turning to `COc1ccc(N2C(=O)CC(Cl)C2=O)cc1` (stereo not given), the GI50 with A549 is > 100 µM (inactive); in the test on ACHN, 17.9 µM (inactive); in the test with DU-145, 94.6 µM (inactive); in the test with HOP-62 it was > 100 µM (inactive); in the test with IGROV-1 it was > 100 µM (inactive); in the test with MDA-MB-231, 17.4 µM (inactive). Moreover, the GI50 is > 100 µM (inactive) in the test on MDA-MB-435; 17.5 µM (inactive) in the test on NCI-H522; 15.2 µM (inactive) with OVCAR-3; 52.2 µM (inactive) in the test with PC-3; 13.5 µM (inactive) in the test with RPMI-8226; > 100 µM (inactive) in the test on SF-268. Further, the GI50 with SK-MEL-2 was > 100 µM (inactive); in the test with SK-MEL-5, > 100 µM (inactive); in the test with SK-OV-3 it was > 100 µM (inactive); in the test with SNB-75, > 100 µM (inactive); in the test with SW-620, 18.7 µM (inactive); with T47D, 18.9 µM (inactive). For the same compound, the GI50 was > 100 µM (inactive) in the test on U-251 and 20.2 µM (inactive) in the test on UACC-62.
Take `COc1ccc(C2SCC(=O)N2NC(=O)C(C)Oc2ccccc2C)cc1` (stereo not given): the GI50 in the test with A549 is 61.4 µM (inactive); in the test with ACHN, 68.5 µM (inactive); in the test with DU-145, > 100 µM (inactive); in the test with HOP-62, > 100 µM (inactive); in the test with IGROV-1, > 100 µM (inactive); with MDA-MB-231 it was 47.5 µM (inactive). Further, the GI50 with MDA-MB-435 was 82.8 µM (inactive); with NCI-H522, 56.6 µM (inactive); in the test on OVCAR-3, > 100 µM (inactive); in the test on PC-3, > 100 µM (inactive); with RPMI-8226 it was 41.5 µM (inactive); in the test on SF-268, > 100 µM (inactive). In addition, the GI50 is 92.7 µM (inactive) in the test with SK-MEL-2; 53 µM (inactive) in the test on SK-MEL-5; > 100 µM (inactive) in the test on SK-OV-3; > 100 µM (inactive) in the test with SNB-75; > 100 µM (inactive) in the test with SW-620; 46.3 µM (inactive) in the test with T47D. Also, the GI50 with U-251 is 85.7 µM (inactive); in the test with UACC-62 it was 80.2 µM (inactive).
For `C[C@]12CC[C@H]3[C@@H](CC[C@]4(O)C[C@@H](O)CC[C@]34CO)[C@@]1(O)CC[C@@H]2C1=CC(=O)OC1` [STROPHANTHIDOL], the 50% growth inhibitory concentration (GI50) with A549 was 0.453 µM (active); in the test on ACHN it was 0.467 µM (active); with DU-145, 1.36 µM (inactive); in the test with HOP-62, 1.36 µM (inactive); in the test on IGROV-1, 2.79 µM (inactive); with MDA-MB-231 it was 8.45 µM (inactive). Further, the GI50 in the test with MDA-MB-435 was 2.57 µM (inactive); with NCI-H522 it was 0.447 µM (active); in the test on OVCAR-3, 0.993 µM (active); in the test with PC-3, 2 µM (inactive); in the test with RPMI-8226 it was 1.95 µM (inactive); in the test with SF-268 it was 0.982 µM (active). Also, the GI50 was 2.5 µM (inactive) with SK-MEL-2; 0.979 µM (active) with SK-MEL-5; 2.64 µM (inactive) with SK-OV-3; 4.02 µM (inactive) in the test on SNB-75; 2.37 µM (inactive) in the test with SW-620; 3.3 µM (inactive) in the test with T47D. In addition, the GI50 is 2.7 µM (inactive) in the test with U-251 and 3.52 µM (inactive) in the test on UACC-62.
`O=C(CCl)Nc1ccc(-c2nc3ccccc3s2)cc1`: the GI50 was 10 µM (inactive) in the test with A549; 5.28 µM (inactive) in the test on ACHN; 10.4 µM (inactive) in the test on DU-145; 3.72 µM (inactive) in the test with HOP-62; 1.34 µM (inactive) in the test on IGROV-1; 3.07 µM (inactive) in the test on MDA-MB-231. Further, the GI50 in the test on MDA-MB-435 is 4.03 µM (inactive); in the test with NCI-H522, 1.77 µM (inactive); in the test on OVCAR-3, 1.82 µM (inactive); with PC-3, 2.56 µM (inactive); in the test on RPMI-8226, 2.26 µM (inactive); in the test on SF-268, 2.81 µM (inactive). Also, the GI50 in the test on SK-MEL-2 is 2.65 µM (inactive); with SK-MEL-5, 1.6 µM (inactive); in the test with SK-OV-3 it was 4.78 µM (inactive); in the test with SNB-75, 4.06 µM (inactive); in the test with SW-620 it was 2.21 µM (inactive); in the test with T47D, 1.53 µM (inactive). Moreover, the GI50 with U-251 is 1.64 µM (inactive); in the test on UACC-62, 2.22 µM (inactive).
In the case of `Nc1nc(Cl)cc(NCC2(CO)CCCC2)n1`, the GI50 in the test on A549, in the test on ACHN, in the test with DU-145, with HOP-62, in the test on IGROV-1 and in the test with MDA-MB-231 was > 100 µM (inactive) each time. The GI50 with MDA-MB-435 was > 100 µM (inactive); in the test with NCI-H522, 49.1 µM (inactive); in the test with OVCAR-3, > 100 µM (inactive); in the test with PC-3, > 100 µM (inactive); in the test with RPMI-8226 it was > 100 µM (inactive); with SF-268, > 100 µM (inactive). Also, the GI50 was > 100 µM (inactive) in the test with SK-MEL-2; 80.4 µM (inactive) in the test with SK-MEL-5; > 100 µM (inactive) in the test on SK-OV-3; 85.7 µM (inactive) in the test with SNB-75; > 100 µM (inactive) with SW-620; > 100 µM (inactive) in the test with T47D. Besides, the GI50 with U-251 and with UACC-62 was > 100 µM (inactive) throughout.
Consider `C=C1C[C@@H](O)[C@@H](Br)C(C)(C)[C@]12CCC(C)(Br)C(Cl)C2` (stereo not given in full), for which the GI50 with A549, with ACHN, in the test on DU-145, in the test on HOP-62, in the test with IGROV-1 and in the test with MDA-MB-231 was > 50 µM (inactive) each time. Besides, the GI50 is > 50 µM (inactive) with MDA-MB-435; > 50 µM (inactive) in the test on NCI-H522; > 50 µM (inactive) with OVCAR-3; 0.8 µM (active) with PC-3; 43.9 µM (inactive) with RPMI-8226; > 50 µM (inactive) in the test with SF-268. Besides, the GI50 in the test on SK-MEL-2, in the test on SK-MEL-5, in the test with SK-OV-3, in the test with SNB-75, with SW-620 and with T47D was > 50 µM (inactive) in each case. Besides, the GI50 in the test on U-251 and with UACC-62 was > 50 µM (inactive) in each case.
On to `Clc1nc2n(c1/C=C/c1cccs1)CCS2`, for which the GI50 in the test on A549 was 34.5 µM (inactive); with ACHN, 37.5 µM (inactive); with DU-145 it was 28.6 µM (inactive); in the test with HOP-62, 53.7 µM (inactive); with IGROV-1, 32 µM (inactive); in the test with MDA-MB-231 it was 6.41 µM (inactive). Further, the GI50 is 31.1 µM (inactive) with MDA-MB-435; 35.1 µM (inactive) with NCI-H522; 23.5 µM (inactive) with OVCAR-3; 40.8 µM (inactive) in the test on PC-3; 15.7 µM (inactive) in the test with RPMI-8226; 40.4 µM (inactive) in the test with SF-268. The GI50 was > 100 µM (inactive) in the test with SK-MEL-2; 17.1 µM (inactive) with SK-MEL-5; 30.7 µM (inactive) with SK-OV-3; 55 µM (inactive) in the test on SNB-75; 26.9 µM (inactive) in the test with SW-620; 17 µM (inactive) in the test with T47D. The GI50 is 28.1 µM (inactive) in the test on U-251 and 37.3 µM (inactive) with UACC-62.
Turning to `COc1ccc2c(n1)Sc1nc3ccccc3nc1N2`, the GI50 with A549 is > 100 µM (inactive); in the test on ACHN, 23.2 µM (inactive); in the test on DU-145, > 100 µM (inactive); with HOP-62 it was 16.1 µM (inactive); with IGROV-1 it was 5.92 µM (inactive); in the test on MDA-MB-231, 13.2 µM (inactive). Further, the GI50 in the test on MDA-MB-435 is 55.1 µM (inactive); in the test on NCI-H522, 78 µM (inactive); in the test with OVCAR-3 it was 32.4 µM (inactive); with PC-3 it was 89.5 µM (inactive); in the test with RPMI-8226 it was > 100 µM (inactive); with SF-268 it was 58.5 µM (inactive). For the same compound, the GI50 in the test on SK-MEL-2 is > 100 µM (inactive); with SK-MEL-5, > 100 µM (inactive); with SK-OV-3 it was 37.2 µM (inactive); with SNB-75, 25.5 µM (inactive); with SW-620 it was > 100 µM (inactive); with T47D it was > 100 µM (inactive). The values for the GI50 with U-251 and in the test on UACC-62 were 19.4 µM (inactive) and 7.16 µM (inactive), respectively.
Take `Cc1ccccc1/N=N/c1ccc(/N=N/c2c(O)ccc3ccccc23)c(C)c1` [SCARLET RED]: the GI50 with A549 is > 100 µM (inactive); in the test with ACHN it was > 100 µM (inactive); in the test on DU-145, > 100 µM (inactive); in the test with HOP-62, 38 µM (inactive); in the test with IGROV-1, > 100 µM (inactive); in the test with MDA-MB-231, > 100 µM (inactive). The GI50 in the test with MDA-MB-435 is > 100 µM (inactive); with NCI-H522, > 100 µM (inactive); in the test with OVCAR-3 it was > 100 µM (inactive); in the test on PC-3, > 100 µM (inactive); in the test with RPMI-8226, > 100 µM (inactive); in the test with SF-268, 70.3 µM (inactive). In addition, the GI50 in the test with SK-MEL-2 is > 100 µM (inactive); in the test with SK-MEL-5 it was > 100 µM (inactive); with SK-OV-3 it was > 100 µM (inactive); in the test on SNB-75, 72.1 µM (inactive); in the test on SW-620, > 100 µM (inactive); in the test with T47D, > 100 µM (inactive). Further, the GI50 in the test on U-251 and in the test with UACC-62 was > 100 µM (inactive) in each case.

Values taken from ChEMBL document CHEMBL1201862, “PubChem BioAssay data set” (2004).
